From patent US20160122342A1, “ENHANCER OF ZESTE HOMOLOG 2 INHIBITORS” (GLAXOSMITHKLINE INTELLECTUAL PROPERTY (NO.2) LIMITED, priority 2013, published 2016) come the findings set out here.

Counter-ions that a name gives are not always drawn.

The target in assay [1] is T1, EZH2 within the PRC2 complex (Homo sapiens, UniProt Q15910).
T1 construct: FLAG; made in house; host or cells: Sf9 cells
Nature of the assay: Assay Protocol 1: EZH2 methyltransferase scintillation proximity assay, mononucleosome substrate. To be noted: Assay Protocol 1; SPA, 3H-SAM, Histone H3 of mononucleosome purified from HeLa cells; 5-member PRC2 complex; read-out: EZH2 IC50. Format: biochemical. As for the experimental part: Compounds contained herein were evaluated for their ability to inhibit the methyltransferase activity of EZH2 within the PRC2 complex. […] Mononucleosomes were captured on SPA beads and the resulting signal is read on a ViewLux plate reader. • 1. Prepare 10 mM stock of compounds from solid in 100% DMSO. • 2. […] Dispense 100 nL of compound from the dilution plate into reaction plates (Grenier Bio-One, 384-well, Cat#784075). Prepare the following solutions: • 1. 50 mM Tris-HCl, pH 8: Per 1 L of base buffer, combine 1 M Tris-HCl, pH 8 (50 mL) and distilled water (950 mL). • 2. 1× Assay Buffer: […] SPA Bead Suspension: […] Per 10 mL of 2× Substrate Solution, combine 1× Assay Buffer (9728.55 uL), 800 ug/mL mononucleosomes (125 uL), 1 mM cold SAM (4 uL), and 7.02 uM 3H-SAM (142.45 uL; 0.55 mCi/mL) to provide a final concentration of 5 ug/mL nucleosomes, 0.2 uM cold SAM, and 0.05 uM 3H-SAM. • 6. 2.67× Quench/Bead Mixture: Per 10 mL of 2.67× Quench/Bead Mixture, combine ddH2O (9358 uL), 10 mM cold SAM (267 uL), 40 mg/mL Bead Suspension (375 uL) to provide a final concentration of 100 uM cold SAM and 0.5 mg/mL SPA beads. • 1. Dispense 100 nL/well of 100× Compound to test wells (as noted above). • 2. […] • 1. Dispense 5 uL/well of 1× Assay Buffer to column 18 (low control reactions). • 2. Dispense 5 uL/well of 2× Enzyme Solution to columns 1-17, 19-24. • 3. Spin assay plates for ˜1 minute at 500 rpm. • 4. Stack the assay plates, covering the top plate. • 5. Incubate the compound/DMSO with the enzyme for 30 minutes at room temperature. • 6. Dispense 5 uL/well of 2× Substrate Solution to columns 1-24. • 7. Spin assay plates for ˜1 minute at 500 rpm. • 8. Stack the assay plates, covering the top plate. • 9. Incubate the assay plates at room temperature for 1 hour. • 1. Dispense 5 uL/well of the 3× Quench/Bead Mixture to columns 1-24. • 2. Seal the top of each assay plate with adhesive TopSeal. • 3. Spin assay plates for ˜1 minute at 500 rpm. • 4. […] • 1. Read the assay plates on the Viewlux Plate Reader utilizing the 613 nm emission filter with a 300 s read time. Reagent addition can be done manually or with automated liquid handler. The final DMSO concentration in this assay is 1%. The positive control is in column 6; negative control is in column 18. Final starting concentration of compounds is 100 μM. Percent inhibition was calculated relative to the DMSO control for each compound concentration and the resulting values were fit using standard IC50 fitting parameters within the ABASE data fitting software package.
(SPA uses beads or plates that emit light when radiolabelled molecules are held near them.)

For assay [2], the target named is T1, EZH2 within the PRC2 complex. Nature of the assay: Assay Protocol 2: EZH2 methyltransferase scintillation proximity assay, biotinylated histone H3 peptide substrate. Format: biochemical. As to conditions: SPA, 3H-SAM, biotinylated unmethylated histone H3K27 peptide substrate, 5-member PRC2 complex. As for the experimental part:
Compounds contained herein were evaluated for their ability to inhibit the methyltransferase activity of EZH2 within the PRC2 complex. […] The peptides were captured on streptavidin-coated SPA beads and the resulting signal was read on a ViewLux plate reader. • 4. Prepare 10 mM stock of compounds from solid in 100% DMSO. • 5. […] Dispense 10 nL of compound from the dilution plate into reaction plates (Corning, 384-well polystyrene NBS, Cat#3673). Prepare the following solutions: • 7. 1× Base Buffer, 50 mM Tris-HCl, pH 8, 2 mM MgCl2: Per 1 L of base buffer, combine 1 M Tris-HCl, pH 8 (50 mL), 1 M MgCl2 (2 mL), and distilled water (948 mL). • 8. 1× Assay Buffer: Per 10 mL of 1× Assay Buffer, combine 1× Base Buffer (9.96 mL), 1 M DTT (40 uL), and 10% Tween-20 (1 uL) to provide a final concentration of 50 mM Tris-HCl, pH 8, 2 mM MgCl2, 4 mM DTT, 0.001% Tween-20. • 9. 2× Enzyme Solution: […] SPA Bead Solution: Per 1 mL of SPA Bead Solution, combine Streptavidin coated SPA beads (PerkinElmer, Cat# RPNQ0261, 40 mg) and 1× Assay Buffer (1 mL) to provide a working concentration of 40 mg/mL. • 11. 2× Substrate Solution: Per 10 mL of 2× Substrate Solution, combine 40 mg/mL SPA Bead Solution (375 uL), 1 mM biotinylated histone H3K27 peptide (200 uL), 12.5 uM 3H-SAM (240 uL; 1 mCi/mL), 1 mM cold SAM (57 uL), and 1× Assay Buffer (9.13 mL) to provide a final concentration of 0.75 mg/mL SPA Bead Solution, 10 uM biotinylated histone H3K27 peptide, 0.15 uM 3H-SAM (˜12 uCi/mL 3H-SAM), and 2.85 uM cold SAM. • 12. 2.67× Quench Solution: Per 10 mL of 2.67× Quench Solution, combine 1× Assay Buffer (9.73 mL) and 10 mM cold SAM (267 uL) to provide a final concentration of 100 uM cold SAM. • 3. […] Dispense 5 uL/well of 1× Assay Buffer to column 18 (low control reactions). • 11. Dispense 5 uL/well of 2× Substrate Solution to columns 1-24 (note: substrate solution should be mixed to ensure homogeneous bead suspension before dispensing into matrix reservoir). • 12. Dispense 5 uL/well of 2× Enzyme Solution to columns 1-17, 19-24. • 13. Incubate the reaction for 60 min at room temperature. • 5. Dispense 6 uL/well of the 2.67× Quench Solution to columns 1-24. • 6. Seal assay plates and spin for ˜1 min at 500 rpm. • 7. Dark adapt plates in the ViewLux instrument for 15-60 min. • 2. Read the assay plates on the Viewlux Plate Reader utilizing the 613 nm emission filter or clear filter (300 s exposure). Reagent addition can be done manually or with automated liquid handler. Percent inhibition was calculated relative to the DMSO control for each compound concentration and the resulting values were fit using standard IC50 fitting parameters within the ABASE data fitting software package.

T1 sequence (Q15910 whole entry): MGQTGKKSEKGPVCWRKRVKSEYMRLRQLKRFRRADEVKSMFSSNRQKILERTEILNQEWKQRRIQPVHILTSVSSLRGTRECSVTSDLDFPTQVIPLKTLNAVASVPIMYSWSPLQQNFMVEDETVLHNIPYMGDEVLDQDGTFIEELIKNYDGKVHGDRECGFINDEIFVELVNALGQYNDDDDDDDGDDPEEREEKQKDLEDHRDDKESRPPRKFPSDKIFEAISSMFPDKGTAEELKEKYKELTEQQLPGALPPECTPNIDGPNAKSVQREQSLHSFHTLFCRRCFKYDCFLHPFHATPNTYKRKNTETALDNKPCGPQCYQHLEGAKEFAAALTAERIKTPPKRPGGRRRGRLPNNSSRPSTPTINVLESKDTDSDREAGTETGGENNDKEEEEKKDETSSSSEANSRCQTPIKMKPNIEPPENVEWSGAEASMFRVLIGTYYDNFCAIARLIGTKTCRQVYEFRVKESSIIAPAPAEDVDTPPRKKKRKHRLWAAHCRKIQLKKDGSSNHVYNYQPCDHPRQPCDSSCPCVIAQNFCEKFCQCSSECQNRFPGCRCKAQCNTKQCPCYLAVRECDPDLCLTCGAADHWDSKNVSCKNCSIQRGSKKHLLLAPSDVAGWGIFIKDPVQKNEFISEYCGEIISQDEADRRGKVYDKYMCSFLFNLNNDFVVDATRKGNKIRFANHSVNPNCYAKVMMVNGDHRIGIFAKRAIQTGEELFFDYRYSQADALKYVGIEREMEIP
T1 sequence (O75530 whole entry partner): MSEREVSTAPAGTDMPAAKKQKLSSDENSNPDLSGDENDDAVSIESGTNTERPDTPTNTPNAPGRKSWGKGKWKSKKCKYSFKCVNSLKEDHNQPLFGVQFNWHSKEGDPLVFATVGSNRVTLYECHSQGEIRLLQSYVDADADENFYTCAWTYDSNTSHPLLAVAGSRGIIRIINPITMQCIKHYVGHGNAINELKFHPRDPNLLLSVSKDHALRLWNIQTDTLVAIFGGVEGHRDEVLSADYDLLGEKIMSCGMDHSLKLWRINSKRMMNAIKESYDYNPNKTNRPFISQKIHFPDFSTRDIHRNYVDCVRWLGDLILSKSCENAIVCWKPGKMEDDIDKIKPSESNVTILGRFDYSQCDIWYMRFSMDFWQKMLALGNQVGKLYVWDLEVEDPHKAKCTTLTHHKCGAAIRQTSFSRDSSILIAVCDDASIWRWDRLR
T1 sequence (Q15022 whole entry partner): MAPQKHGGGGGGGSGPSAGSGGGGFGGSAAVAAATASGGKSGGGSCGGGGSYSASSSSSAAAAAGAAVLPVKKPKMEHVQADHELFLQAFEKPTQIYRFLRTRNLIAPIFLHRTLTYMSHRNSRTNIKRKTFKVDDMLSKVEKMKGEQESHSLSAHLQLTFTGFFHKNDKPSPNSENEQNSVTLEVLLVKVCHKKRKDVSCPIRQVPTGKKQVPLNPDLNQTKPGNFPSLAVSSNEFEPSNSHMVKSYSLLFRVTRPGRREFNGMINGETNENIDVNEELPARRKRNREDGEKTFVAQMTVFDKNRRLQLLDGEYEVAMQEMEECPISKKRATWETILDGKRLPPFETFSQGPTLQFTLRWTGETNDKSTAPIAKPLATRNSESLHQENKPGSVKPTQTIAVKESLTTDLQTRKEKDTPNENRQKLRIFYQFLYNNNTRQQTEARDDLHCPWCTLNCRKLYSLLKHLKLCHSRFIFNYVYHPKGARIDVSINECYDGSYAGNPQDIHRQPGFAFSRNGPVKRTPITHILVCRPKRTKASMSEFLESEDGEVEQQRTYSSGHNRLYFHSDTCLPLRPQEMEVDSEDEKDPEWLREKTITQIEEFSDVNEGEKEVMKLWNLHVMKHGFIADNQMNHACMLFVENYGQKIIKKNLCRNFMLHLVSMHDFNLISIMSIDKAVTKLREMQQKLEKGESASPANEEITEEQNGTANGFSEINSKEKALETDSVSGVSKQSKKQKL
T1 sequence (Q09028 whole entry partner): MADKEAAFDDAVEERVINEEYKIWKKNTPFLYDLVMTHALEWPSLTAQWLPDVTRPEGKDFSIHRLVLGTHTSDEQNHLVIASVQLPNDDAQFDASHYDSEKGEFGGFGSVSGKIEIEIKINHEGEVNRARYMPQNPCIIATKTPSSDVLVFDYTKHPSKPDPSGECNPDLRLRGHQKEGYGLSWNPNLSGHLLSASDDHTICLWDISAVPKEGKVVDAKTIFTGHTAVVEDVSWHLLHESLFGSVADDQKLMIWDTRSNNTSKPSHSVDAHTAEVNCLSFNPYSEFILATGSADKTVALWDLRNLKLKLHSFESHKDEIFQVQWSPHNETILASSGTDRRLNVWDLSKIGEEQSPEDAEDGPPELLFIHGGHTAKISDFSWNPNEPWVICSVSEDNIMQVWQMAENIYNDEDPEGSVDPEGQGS
T1 sequence (Q6ZN18 whole entry partner): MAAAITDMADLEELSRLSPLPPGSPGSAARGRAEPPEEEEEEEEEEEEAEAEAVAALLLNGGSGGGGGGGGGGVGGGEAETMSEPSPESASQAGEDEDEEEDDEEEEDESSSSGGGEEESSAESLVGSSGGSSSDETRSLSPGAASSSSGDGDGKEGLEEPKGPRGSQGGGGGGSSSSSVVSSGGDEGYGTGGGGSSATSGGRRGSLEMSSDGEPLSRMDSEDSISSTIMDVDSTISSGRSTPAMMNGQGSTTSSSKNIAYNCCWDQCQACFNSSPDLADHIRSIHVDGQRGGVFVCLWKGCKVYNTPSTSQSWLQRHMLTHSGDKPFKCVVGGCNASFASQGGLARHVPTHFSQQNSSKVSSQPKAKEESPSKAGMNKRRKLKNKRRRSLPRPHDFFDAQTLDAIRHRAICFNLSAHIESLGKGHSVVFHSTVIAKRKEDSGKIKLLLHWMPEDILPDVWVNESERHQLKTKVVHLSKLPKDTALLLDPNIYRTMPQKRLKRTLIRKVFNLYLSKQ

By IC50 is commonly meant the concentration needed to halve the response being measured. Turning to `CCN(c1cccc2c1C/C=C/CCCc1cc(C)[nH]c(=O)c1CNC2=O)C1CCNCC1` [Example 40, (E)-11-(ethyl(piperidin-4-yl)amino)-3-methyl-5,6,7,10,16,17-hexahydro-1H-benzo[c]pyrido[4,3-k][1]azacyclotridecine-1,15(2H)-dione], the IC50 in assay [1] stood at 32 nM; in assay [2], 100 nM.

Turning to `CCN(c1cccc2c1CC=CCOCc1cc(C)[nH]c(=O)c1CNC2=O)C1CCOCC1` (racemic) [Example 12, (E)- and (Z)-11-(ethyl(tetrahydro-2H-pyran-4-yl)amino)-3-methyl-7,10,16,17-tetrahydrobenzo[h]pyrido[4,3-c][1,6]oxaazacyclotridecine-1,15(2H,5H)-dione], the values for the IC50 in assay [1] and in assay [2] were 126 nM and 200 nM, respectively.

As to `CCN(c1cccc2c1CCCCCCc1cc(C)[nH]c(=O)c1CNC2=O)C1CCOCC1` [Example 20, 11-(ethyl(tetrahydro-2H-pyran-4-yl)amino)-3-methyl-5,6,7,8,9,10,16,17-octahydro-1H-benzo[c]pyrido[4,3-k][1]azacyclotridecine-1,15(2H)-dione], the IC50 in assay [1] amounted to 25 nM; in assay [2], 1000 nM.

In the case of `CCN(c1cccc2c1C/C=C/CCCc1cc(C)[nH]c(=O)c1CNC2=O)C1CCOCC1` [Example 19, (E)-11-(ethyl(tetrahydro-2H-pyran-4-yl)amino)-3-methyl-5,6,7,10,16,17-hexahydro-1H-benzo[c]pyrido[4,3-k][1]azacyclotridecine-1,15(2H)-dione], the results for the IC50 in assay [1] and in assay [2] were 40 nM and 79 nM, respectively.

Regarding `CCN(c1cccc2c1C/C=C/CCc1cc(C)[nH]c(=O)c1CN(C)C2=O)C1CCOCC1` [Example 9, (E)-10-(ethyl(tetrahydro-2H-pyran-4-yl)amino)-3,15-dimethyl-5,6,15,16-tetrahydrobenzo[c]pyrido[4,3-j][1]azacyclododecine-1,14(2H,9H)-dione], the IC50 worked out at 79 nM in assay [1] and 126 nM in assay [2].

For `CCN(c1cccc2c1C/C=C\CCCc1cc(C)[nH]c(=O)c1CNC2=O)C1CCOCC1` [Example 21, (Z)-11-(ethyl(tetrahydro-2H-pyran-4-yl)amino)-3-methyl-5,6,7,10,16,17-hexahydro-1H-benzo[c]pyrido[4,3-k][1]azacyclotridecine-1,15(2H)-dione], the IC50 in assay [1] came to 100 nM; in assay [2], 398 nM.

As for `CCN(c1cccc2c1C/C=C/CCc1cc(C)[nH]c(=O)c1CNC2=O)[C@H]1CC[C@H](N)CC1` [Example 36, (E)-10-((trans-4-aminocyclohexyl)(ethyl)amino)-3-methyl-5,6,15,16-tetrahydrobenzo[c]pyrido[4,3-j][1]azacyclododecine-1,14(2H,9H)-dione], the concentration for half-maximal inhibition (IC50) in assay [1] stood at 16 nM; in assay [2] it was 126 nM.

Consider `CCN(c1cccc2c1C/C=C/CNCc1cc(C)[nH]c(=O)c1CNC2=O)C1CCOCC1` [Example 38, (E)-11-(ethyl(tetrahydro-2H-pyran-4-yl)amino)-3-methyl-5,6,7,10,16,17-hexahydro-1H-benzo[h]pyrido[4,3-c][1,6]diazacyclotridecine-1,15(2H)-dione], for which the IC50 in assay [1] came to 100 nM; in assay [2] it was 158 nM.

In the case of `CCN(c1cccc2c1C/C=C/CCc1cc(C)[nH]c(=O)c1CNC2=O)C1CCN(CC2CC2)CC1` [Example 41, (E)-10-((1-(cyclopropylmethyl)piperidin-4-yl)(ethyl)amino)-3-methyl-5,6,15,16-tetrahydrobenzo[c]pyrido[4,3-j][1]azacyclododecine-1,14(2H,9H)-dione], the IC50 in assay [1] and in assay [2] was 40 nM throughout.

Consider `Cc1cc2c(c(=O)[nH]1)CNC(=O)c1cc(Cl)cc(O[C@H]3CC[C@H](N(C)C)CC3)c1CCCCC2` [Example 3, 12-chloro-10-((trans-4-(dimethylamino)cyclohexyl)oxy)-3-methyl-6,7,8,9,15,16-hexahydrobenzo[c]pyrido[4,3-j][1]azacyclododecine-1,14(2H,5H)-dione], for which the IC50 in assay [1] is 100 nM; in assay [2] it was 158 nM.

As to `CCN(c1cccc2c1C/C=C/CCc1cc(C)[nH]c(=O)c1CNC2=O)C1CCNCC1` [Example 31, (E)-10-(ethyl(piperidin-4-yl)amino)-3-methyl-5,6,15,16-tetrahydrobenzo[c]pyrido[4,3-j][1]azacyclododecine-1,14(2H,9H)-dione], the IC50 in assay [1] turned out to be 13 nM; in assay [2], 200 nM.

Regarding `Cc1cc2c(c(=O)[nH]1)CNC(=O)c1cc(Cl)cc(O[C@H]3CC[C@H](N)CC3)c1C/C=C/CC2` [Example 1, (E)-10-((trans-4-aminocyclohexyl)oxy)-12-chloro-3-methyl-5,6,15,16-tetrahydrobenzo[c]pyrido[4,3-j][1]azacyclododecine-1,14(2H,9H)-dione hydrochloride], the IC50 worked out at 32 nM in assay [1] and 100 nM in assay [2].

Regarding `CCN(c1cccc2c1C/C=C/CCc1cc(C)[nH]c(=O)c1CNC2=O)C1CCN(CCC(F)(F)F)CC1` [Example 43, (E)-10-(ethyl(1-(3,3,3-trifluoropropyl)piperidin-4-yl)amino)-3-methyl-5,6,15,16-tetrahydrobenzo[c]pyrido[4,3-j][1]azacyclododecine-1,14(2H,9H)-dione], the IC50 in assay [1] turned out to be 63 nM; in assay [2], 200 nM.

Regarding `CCN(c1cccc2c1C/C=C/CCc1cc(C)[nH]c(=O)c1CNC2=O)C1CCN(S(C)(=O)=O)CC1` [Example 34, (E)-10-(ethyl(1-(methylsulfonyl)piperidin-4-yl)amino)-3-methyl-5,6,15,16-tetrahydrobenzo[c]pyrido[4,3-j][1]azacyclododecine-1,14(2H,9H)-dione], the IC50 turned out to be 63 nM in assay [1] and 126 nM in assay [2].
